Legend:
[1] = system: EKVX; assay: cells; conditions: Homo sapiens, 48 h
[2] = system: K-562; assay: cells; conditions: Homo sapiens, K562, 48 h
[3] = system: LOX IMVI; assay: cells; conditions: Homo sapiens, 48 h
[4] = system: MOLT-4; assay: cells; conditions: Homo sapiens, MOLT-4, 48 h
[5] = system: PC-3; assay: cells; conditions: Homo sapiens, PC-3, 48 h
[6] = system: HS 578T; assay: cells; conditions: Homo sapiens, 48 h
[7] = system: SW-620; assay: cells; conditions: Homo sapiens, SW-620, 48 h
[8] = system: UACC-257; assay: cells; conditions: Homo sapiens, UACC-257, 48 h
[9] = system: MALME-3M; assay: cells; conditions: Homo sapiens, 48 h
[10] = system: MDA-MB-231/ATCC; assay: cells; conditions: Homo sapiens, MDA-MB-231, 48 h
[11] = Hemolytic activity, spectrophotometric; assay type: cell-based, human; conditions: human, human red blood cells (huRBC), 5% hematocrit, 200 μg/mL, 37 °C
[12] = system: HCT-116; assay: cells; conditions: Homo sapiens, HCT-116, 48 h
[13] = system: ACHN; assay: cells; conditions: Homo sapiens, 48 h
[14] = system: NCI-H23; assay: cells; conditions: Homo sapiens, NCI-H23, 48 h
[15] = system: RPMI-8226; assay: cells; conditions: Homo sapiens, RPMI-8226, 48 h
[16] = system: BT-549; assay: cells; conditions: Homo sapiens, BT-549, 48 h
[17] = system: MDA-MB-435; assay: cells; conditions: Homo sapiens, MDA-MB-435, 48 h
[18] = system: OVCAR-5; assay: cells; conditions: Homo sapiens, OVCAR-5, 48 h
[19] = system: 60 cancer cell lines; assay: NCI-60 one-dose screen (10 μM); assay type: cell-based; conditions: Homo sapiens; one dose of 10 μM, mean over 60 cancer cell lines; read-out: Mean Growth Percent (MGP)
From the text: Additionally, the mean of the growth percentages (MGP) of each compound against all the 60 cancer cell lines is also reported, which is used as one of the selection criteria to continue with tests at five concentration doses.

[20] = system: SF-539; assay: cells; conditions: Homo sapiens, SF-539, 48 h
[21] = system: IGROV1; assay: cells; conditions: Homo sapiens, IGROV-1, 48 h
[22] = system: SN12C; assay: cells; conditions: Homo sapiens, 48 h
[23] = system: OVCAR-8; assay: cells; conditions: Homo sapiens, OVCAR-8, 48 h
[24] = system: MCF7; assay: cells; conditions: Homo sapiens, MCF7, 48 h
[25] = system: NCI-H226; assay: cells; conditions: Homo sapiens, NCI-H226, 48 h
[26] = system: SK-MEL-28; assay: cells; conditions: Homo sapiens, SK-MEL-28, 48 h
[27] = system: HL-60(TB); assay: cells; conditions: Homo sapiens, HL-60, 48 h
[28] = system: NCI-H460; assay: cells; conditions: Homo sapiens, NCI-H460, 48 h
[29] = system: SK-OV-3; assay: cells; conditions: Homo sapiens, SK-OV-3, 48 h
[30] = system: RXF 393; assay: cells; conditions: Homo sapiens, RXF 393, 48 h
[31] = system: HCC-2998; assay: cells; conditions: Homo sapiens, HCC 2998, 48 h
[32] = system: CCRF-CEM; assay: cells; conditions: Homo sapiens, 48 h
[33] = system: SNB-75; assay: cells; conditions: Homo sapiens, SNB-75, 48 h
[34] = system: A549/ATCC; assay: cells; conditions: Homo sapiens, A549, 48 h
[35] = system: TK-10; assay: cells; conditions: Homo sapiens, TK-10, 48 h
[36] = system: A498; assay: cells; conditions: Homo sapiens, A498, 48 h
[37] = system: HOP-92; assay: cells; conditions: Homo sapiens, HOP-92, 48 h
[38] = system: M14; assay: cells; conditions: Homo sapiens, M14, 48 h

For `CN(C)c1nc(NCCNS(=O)(=O)c2ccc(C3=Nc4c(N)nc(N)nc4NC(c4ccc(Cl)cc4)C3)cc2)nc(Nc2ccc(F)cc2)n1` (stereo not shown) [31e], the GI50 [1] was 5.05 µM, the CC50 ([1]; read-out: LC50) was > 100 µM and the GI50 ([2]; K-562, 48 h) was 3.08 µM. For the same molecule, the CC50 ([2]; read-out: LC50) was > 100 µM, the GI50 [3] was 1.77 µM and the CC50 ([3]; read-out: LC50, LOX IMVI, 48 h) was 3.55 µM. For the same molecule, the GI50 [4] was 2.68 µM, the GI50 [5] was 3.44 µM and the CC50 ([5]; read-out: LC50) was > 100 µM. The GI50 [6] was 7.15 µM, the CC50 ([6]; read-out: LC50) was > 100 µM and the GI50 [7] was 5.95 µM. For the same molecule, the CC50 ([7]; read-out: LC50) was > 100 µM, the GI50 [8] was 8.07 µM and the CC50 ([8]; read-out: LC50) was > 100 µM. The GI50 [9] was 3.86 µM, the CC50 ([9]; read-out: LC50) was 19.2 µM and the GI50 [10] was 3.73 µM. It also gave a CC50 ([10]; read-out: LC50) of 65.7 µM, a hemolysis at 24 h, 200 µg/mL [11] of 2.3% and a GI50 [12] of 3.77 µM. For the same molecule, the CC50 ([12]; read-out: LC50) was > 100 µM, the GI50 [13] was > 100 µM and the CC50 ([13]; read-out: LC50) was > 100 µM. For the same molecule, the GI50 [14] was 72.7 µM, the CC50 ([14]; read-out: LC50) was > 100 µM and the GI50 [15] was 3.19 µM. The CC50 ([15]; read-out: LC50) was > 100 µM, the GI50 [16] was 3.96 µM and the CC50 ([16]; read-out: LC50) was 28.7 µM. The GI50 [17] was 5.17 µM, the CC50 ([17]; read-out: LC50) was > 100 µM and the GI50 [18] was > 100 µM. The CC50 ([18]; read-out: LC50) was > 100 µM, the activity at 10 µM [19] was 30.8% and the GI50 [20] was 3.3 µM. The CC50 ([20]; read-out: LC50, SF-539, 48 h) was > 100 µM, the GI50 [21] was 9.96 µM and the CC50 ([21]; read-out: LC50) was > 100 µM. The GI50 [22] was 7.37 µM, the CC50 ([22]; read-out: LC50) was > 100 µM and the GI50 [23] was > 100 µM. For the same molecule, the CC50 ([23]; read-out: LC50) was > 100 µM, the GI50 [24] was 2.89 µM and the CC50 ([24]; read-out: LC50) was > 100 µM. For the same molecule, the GI50 [25] was > 100 µM, the CC50 ([25]; read-out: LC50) was > 100 µM and the GI50 [26] was 8.22 µM. For the same molecule, the CC50 ([26]; read-out: LC50) was > 100 µM, the GI50 [27] was 2.72 µM and the CC50 ([27]; read-out: LC50) was 13.3 µM. The GI50 [28] was 4.49 µM, the CC50 ([28]; read-out: LC50) was > 100 µM and the GI50 [29] was > 100 µM. For the same molecule, the CC50 ([29]; read-out: LC50) was > 100 µM, the GI50 [30] was 2.27 µM and the CC50 ([30]; read-out: LC50) was 8.75 µM. For the same molecule, the GI50 [31] was 3.14 µM, the CC50 ([31]; read-out: LC50) was 18.4 µM and the GI50 [32] was 2.92 µM. The CC50 ([32]; read-out: LC50) was > 100 µM, the GI50 [33] was 3.76 µM and the CC50 ([33]; read-out: LC50) was > 100 µM. For the same molecule, the GI50 [34] was > 100 µM, the CC50 ([34]; read-out: LC50) was > 100 µM and the GI50 [35] was > 100 µM. For the same molecule, the CC50 ([35]; read-out: LC50) was > 100 µM, the GI50 [36] was 58.4 µM and the CC50 ([36]; read-out: LC50) was > 100 µM. The GI50 [37] was 2.53 µM, the CC50 ([37]; read-out: LC50) was 13.2 µM and the GI50 [38] was 3.15 µM. The CC50 ([38]; read-out: LC50) was 11.5 µM.

Reference: PMC11012124, “Synthesis of Novel Triazine-Based Chalcones and 8,9-dihydro-7H-pyrimido[4,5-b][1,4]diazepines as Potential Leads in the Search of Anticancer, Antibacterial and Antifungal Agents” (International Journal of Molecular Sciences, 2024)
